Experimental data reported in patent US20250032478A1 (SURGE Therapeutics, Inc., priority 2021, published 2025).

Legend:
[1] = Visual solubility assessment of Resiquimod Form I; assay type: physicochemical; conditions: room temperature
[2] = Hygroscopicity of solid form; assay type: physicochemical
[3] = Solubility in sodium phosphate buffered saline comprising 10 wt % poloxamer 407; assay type: physicochemical
[4] = test system: 4T1-Luc2 breast cancer cells; test: Survival of tumor resection mice, composition placed at tumor resection site; assay type: in vivo, female BALB/c mice
Procedure: 4T1-Luc2 breast cancer cells were cultured in RPMI-1640 medium, with 10% fetal bovine serum (FBS) and 1% penicillin/streptomycin. All cells were cultured in a 37° C. in a humidified incubator, with 5% Co2.
All animal experiments were performed using 6-8 weeks old female BALB/c mice (Jackson Laboratories, #000651). For animal survival studies, 10^5 4T1-Luc2 cells were inoculated orthotopically into the fourth mammary fat pad of a mouse. Mice were size-matched and randomly assigned to treatment groups, and surgery was performed on day 10 or day 12 after tumor inoculation. Tumor sizes were measured with calipers. For primary tumor resection, mice were anesthetized with 2% isoflurane, the tumor was resected, and a hydrogel was placed in the surgical site at the time of surgery.
In some embodiments, female BALB/cJs mice were inoculated orthotopically with 100,000 breast cancer cells (e.g., 4T1-Luc2 cells).

[5] = in polymer combination of 8-12.5% or 6-11% (w/w) poloxamer (e.g. 10% P407) and 1-5% (w/w) HA (e.g. 4% HA 119 KDa), at tumor resection site, FIG. 29

CCOCc1nc2c(N)nc3ccccc3c2n1CC(C)(C)O [Resiquimod Form I, Resiquimod]
Observation (visual solubility) ([1]; 1-Butanol, 0.5 mL added to 10 mg): Light hazy solution
Observation (visual solubility) ([1]; 1-Propanol, 0.5 mL added to 10 mg): Light hazy solution
Observation (visual solubility) ([1]; 2-Butanol, 0.5 mL added to 10 mg): Light hazy solution
Observation (visual solubility) ([1]; 2-Ethoxyethanol, 0.25-0.5 mL added to 10 mg): Light hazy solution throughout
Observation (visual solubility) ([1]; 2-Methoxyethanol, 0.25-0.5 mL added to 10 mg): Light hazy solution throughout
Observation (visual solubility) ([1]; 2-Methyl THF, 0.25 mL added to 10 mg): Clear solution
Observation (visual solubility) ([1]; 2-Propanol, 0.5 mL added to 10 mg): Suspension
Observation (visual solubility) ([1]; Acetone, 0.5 mL added to 10 mg): Suspension
Observation (visual solubility) ([1]; Acetonitrile, 0.5 mL added to 10 mg): Suspension
Observation (visual solubility) ([1]; Amyl alcohol, 0.5 mL added to 10 mg): Light hazy solution
Observation (visual solubility) ([1]; Anisole, 0.5 mL added to 10 mg): Suspension
Observation (visual solubility) ([1]; CPME, 0.5 mL added to 10 mg): Suspension
Observation (visual solubility) ([1]; Chloroform, 0.5 mL added to 10 mg): Light hazy solution
Observation (visual solubility) ([1]; Cyclohexane, 0.5 mL added to 10 mg): Suspension
Observation (visual solubility) ([1]; DMP, 0.5 mL added to 10 mg): Suspension
Observation (visual solubility) ([1]; Dichloromethane, 0.5 mL added to 10 mg): Light hazy solution
Observation (visual solubility) ([1]; Diethyl ether, 0.5 mL added to 10 mg): Suspension
Observation (visual solubility) ([1]; Ethanol, 0.25-0.5 mL added to 10 mg): Light hazy solution throughout
Observation (visual solubility) ([1]; Ethyl acetate, 0.5 mL added to 10 mg): Suspension
Observation (visual solubility) ([1]; Heptane, 0.5 mL added to 10 mg): Suspension
Observation (visual solubility) ([1]; Hexane, 0.5 mL added to 10 mg): Suspension
Observation (visual solubility) ([1]; Isobutanol, 0.5 mL added to 10 mg): Light hazy solution
Observation (visual solubility) ([1]; Isobutyl acetate, 0.5 mL added to 10 mg): Suspension
Observation (visual solubility) ([1]; Isopropyl acetate, 0.5 mL added to 10 mg): Suspension
Observation (visual solubility) ([1]; MEK, 0.5 mL added to 10 mg): Suspension
Observation (visual solubility) ([1]; MIBK, 0.5 mL added to 10 mg): Suspension
Observation (visual solubility) ([1]; MIPK, 0.5 mL added to 10 mg): Suspension
Observation (visual solubility) ([1]; MTBE, 0.5 mL added to 10 mg): Suspension
Observation (visual solubility) ([1]; Methanol, 0.25-0.5 mL added to 10 mg): Light hazy solution throughout
Observation (visual solubility) ([1]; Methyl acetate, 0.5 mL added to 10 mg): Suspension
Observation (visual solubility) ([1]; Nitromethane, 0.5 mL added to 10 mg): Suspension
Observation (visual solubility) ([1]; Octane, 0.5 mL added to 10 mg): Suspension
Observation (visual solubility) ([1]; Pentane, 0.5 mL added to 10 mg): Suspension
Observation (visual solubility) ([1]; Petroleum Ether, 0.5 mL added to 10 mg): Suspension
Observation (visual solubility) ([1]; Propylene glycol, 0.25-0.5 mL added to 10 mg): Light hazy solution throughout
Observation (visual solubility) ([1]; THF, 0.25-0.5 mL added to 10 mg): Light hazy solution
Observation (visual solubility) ([1]; Toluene, 0.5 mL added to 10 mg): Suspension
Observation (visual solubility) ([1]; Water, 0.5 mL added to 10 mg): Suspension
Observation (visual solubility) ([1]; Xylene, 0.5 mL added to 10 mg): Suspension
Observation (visual solubility) ([1]; p-Dioxane, 0.5 mL added to 10 mg): Light hazy solution
hygroscopicity [2]: notably low hygroscopicity
solubility [3]: increased solubility

CCOCc1nc2c(N)nc3ccccc3c2n1CC(C)(C)O [resiquimod, Resiquimod]
efficacy vs chemically-crosslinked hyaluronic acid hydrogel (HyStem) incorporated with resiquimod ([4]; in crosslinked hydrogel of 8-13.5% (w/w) Poloxamer (e.g. 10% P407) and 0.6-1.5% (w/w) HA (e.g. 1% HA 1.5 MDa), FIG. 27A-E): comparable to or better than
survival time longer than control group receiving the hydrogel without resiquimod ([4]; in crosslinked hydrogel of 8-13.5% or 6-11% (w/w) Poloxamer (e.g. 10% P407) and 0.6-1.5% (w/w) HA (e.g. 1% HA 1.5 MDa), at tumor resection site, FIG. 27A-E): at least 50%
survival rate vs control group receiving the hydrogel without resiquimod ([4]; in crosslinked hydrogel of 8-13.5% or 6-11% (w/w) Poloxamer and 0.6-1.5% (w/w) HA, at tumor resection site, FIG. 27A-E): much higher survival rate
survival time vs control group receiving polymer combination without resiquimod ([4]; in polymer combination of 8-12.5% or 6-11% (w/w) poloxamer (e.g. 8%, 10% or 12.5% P407) and 1.2-2.75% (w/w) HA (e.g. 1.625% or 2.25% HA 730 KDa), at tumor resection site, FIG. 28A-D): survived over a longer period of time
survival rate vs control group receiving polymer combination without resiquimod [4, 5]: higher survival rate
survival time vs control group receiving polymer combination without resiquimod [4, 5]: survived over a longer period of time
survival rate vs control group receiving polymer combination without resiquimod ([4]; in polymer combination of 8-12.5% or 6-11% (w/w) poloxamer and 1.2-2.75% (w/w) HA 730 KDa, at tumor resection site, FIG. 28A-D): higher survival rate
